These results are taken from patent publication US9932410B2, “Human neutralizing anti-kit antibodies and uses thereof” (INSERM (Institut National de la Sante et de la Recherche …, priority 2013, dated 2018).

For orientation: Kd means the constant that tells how readily two partners part at equilibrium.

“Also recorded” adds a separate entry of the source.

The subject of one experiment is HMC1.1 (KITV560G) cells. Briefly: Proliferation assay (MTS cell viability) on HMC1.1 cells. Format: cell-based, human. The procedure:
FIG. 5: Antibody modulation of oncogenic KIT. (A) HMC1.1 or HMC1.2 cells were incubated in IMDM 1% serum in the presence of anti-KIT antibodies or control antibody as indicated at 5 μg/mL (light grey) or 50 μg/mL (medium grey) or without antibody (dark grey). Cell viability is expressed in % compared to non treated cells. HMC1.1 or HMC1.2 cells were incubated in IMDM 10% serum in the presence of anti-KIT antibodies or control antibody (10 μg/mL) for 1, 2 or 24 hrs. As indicated and analyzed (B) by FACS using 104D2 anti-KIT antibody or (C) by western blot using anti-KIT and phospho-specific anti-KIT antibodies. (D) Three days treatment with anti-KIT antibodies maintained a low level of KIT on both mastocytoma cell lines.
UT-7 were seeded at 10^4 cells/well and treated for 4 days with 2D1, 3G1, H7 or Bot irrelevant antibody at 5 or 50 μg/mL […] in the presence of EPO or CHO-KL supernatant diluted 500 times. HMC1.1 and 1.2 were treated the same but for 7 days and with 1% SVF instead of 10% and without cytokines. Cell viability was estimated with MTS assay (PROMEGA) as recommended by the manufacturer.

Experiment [1] concerns HMC1.2 (KIT V560G D816V) cells. The experiment can be described thus: Proliferation assay (MTS cell viability) on HMC1.2 cells.
In experiment [2] the target is T1, KIT surface level on UT-7/EPO cells (wild type KIT) (Homo sapiens, UniProt P10721).
T1 construct: endogenous in cells; host or cells: UT-7/EPO human erythroleukemic cells
T1 sequence (P10721 26-976): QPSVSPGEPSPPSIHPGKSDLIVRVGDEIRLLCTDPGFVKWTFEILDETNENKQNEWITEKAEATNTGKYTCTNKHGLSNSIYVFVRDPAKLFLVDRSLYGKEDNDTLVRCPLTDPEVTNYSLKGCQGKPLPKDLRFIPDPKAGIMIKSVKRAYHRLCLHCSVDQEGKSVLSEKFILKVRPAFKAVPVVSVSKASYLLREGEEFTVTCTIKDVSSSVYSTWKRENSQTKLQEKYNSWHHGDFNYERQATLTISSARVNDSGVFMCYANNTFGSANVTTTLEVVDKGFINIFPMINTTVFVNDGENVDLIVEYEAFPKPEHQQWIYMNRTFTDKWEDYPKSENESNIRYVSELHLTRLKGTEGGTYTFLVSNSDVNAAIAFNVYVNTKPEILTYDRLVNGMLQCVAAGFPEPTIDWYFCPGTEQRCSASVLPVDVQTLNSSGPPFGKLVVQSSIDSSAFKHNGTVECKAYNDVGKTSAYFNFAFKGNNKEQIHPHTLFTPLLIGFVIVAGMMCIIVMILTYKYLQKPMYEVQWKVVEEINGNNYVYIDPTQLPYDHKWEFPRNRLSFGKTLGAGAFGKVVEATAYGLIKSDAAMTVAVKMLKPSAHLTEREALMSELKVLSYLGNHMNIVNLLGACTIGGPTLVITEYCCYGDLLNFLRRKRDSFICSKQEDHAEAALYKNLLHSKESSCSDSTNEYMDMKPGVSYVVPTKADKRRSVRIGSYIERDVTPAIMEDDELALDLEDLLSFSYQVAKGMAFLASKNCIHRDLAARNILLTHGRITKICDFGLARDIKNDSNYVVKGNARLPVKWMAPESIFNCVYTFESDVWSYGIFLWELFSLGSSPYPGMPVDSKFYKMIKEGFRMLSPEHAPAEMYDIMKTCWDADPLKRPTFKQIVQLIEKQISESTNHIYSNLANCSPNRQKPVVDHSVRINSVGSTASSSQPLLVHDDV
The experiment can be described thus: Internalization assay: KIT surface level by FACS with 104D2 on UT-7/EPO cells. Format: cell-based. On the technique in general: Flow cytometry measures light scatter and fluorescence of single cells or particles in a stream.

Another experiment concerns the target T2, biotinylated KIT-ECD (Homo sapiens, UniProt P10721).
T2 construct: KIT-ECD, amino acid 26 to 509, P10721 UniProtKB/Swiss-Prot; 6His (C); biotin (label); made in house; host or cells: insect cells (High Five, baculovirus)
The experiment can be described thus: Affinity measurement using yeast display of scFv with biotinylated KIT-ECD. Format: binding. The note with it: scFv displayed on yeast; for Kd: affinity matured variants, read-out: intrinsic Kd. The source says:
Cells were then put on ice, washed with ice cold FACS buffer and bound antigen was detected with Streptavin conjugated to PE.

T2 sequence (P10721 26-509): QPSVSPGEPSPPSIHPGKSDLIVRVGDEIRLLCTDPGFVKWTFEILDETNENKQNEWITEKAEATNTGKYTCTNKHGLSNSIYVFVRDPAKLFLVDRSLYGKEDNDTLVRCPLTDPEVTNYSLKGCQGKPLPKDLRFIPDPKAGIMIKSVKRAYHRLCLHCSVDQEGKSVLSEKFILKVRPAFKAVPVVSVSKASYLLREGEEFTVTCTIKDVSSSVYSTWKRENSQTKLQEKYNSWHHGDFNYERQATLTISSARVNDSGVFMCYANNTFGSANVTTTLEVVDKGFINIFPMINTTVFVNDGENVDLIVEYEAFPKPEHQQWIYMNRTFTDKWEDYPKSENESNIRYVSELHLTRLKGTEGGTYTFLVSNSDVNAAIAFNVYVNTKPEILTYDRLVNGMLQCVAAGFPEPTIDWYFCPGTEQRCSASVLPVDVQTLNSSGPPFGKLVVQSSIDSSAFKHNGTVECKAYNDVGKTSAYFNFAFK

As to `Cc1nc(Nc2ncc(C(=O)Nc3c(C)cccc3Cl)s2)cc(N2CCN(CCO)CC2)n1` [dasatinib, N-(2-chloro-6-methylphenyl)-2-[[6-[4-(2-hydroxyethyl)-1-piperazinyl]-2-methyl-4-pyrimidinyl]amino]-5-thiazole-carboxamide monohydrate], the “toxicity of TKI to HMC1.1 cells” value with HMC1.1 (KITV560G) cells is “toxic to HMC1.1 cells”. The “toxicity of TKI to HMC1.2 cells” value in experiment [1] was “toxic to HMC1.2 cells”.

Regarding `Cc1ccc(NC(=O)c2ccc(CN3CCN(C)CC3)cc2)cc1Nc1nccc(-c2cccnc2)n1` [imatinib, 4-[(4-methylpiperazin-1-yl)methyl]-N-(4-methyl-3-{[4-(pyridin-3-yl)pyrimidin-2-yl]amino}phenyl)benzamide], the “KIT surface levels, imatinib treatment alone” value in experiment [2] (UT-7/EPO cells with EPO, Imatinib 1 μM, 4 hrs) is recorded as “decreased KIT surface levels; also recorded: reduced KIT level at the cell surface”. In addition, the “effect on SCF-induced KIT surface level decrease” value in experiment [2] (UT-7/EPO cells, imatinib with SCF) was “inhibited SCF-induced KIT surface level decrease”. Also, the “toxicity of TKI to HMC1.1 cells” value with HMC1.1 (KITV560G) cells is “toxic to HMC1.1 cells”. Also, in experiment [1], the “toxicity of TKI to HMC1.2 cells” value is listed as “resistance of the D816V mutant to imatinib”.

B1: 2D1-C7: affinity matured variant of 2D1, same VH (SEQ ID NO: 1), VL SEQ ID NO: 26 (antibody, V domains shown)
VH: MAQVKLQESGGGLVQPGGSLRLSCAASGFTFDSYAMSWVRQAPGKGLEWVSYITSSSSTIYYVDSVKGRFTISRDNAKNSLYLQMNSLRDEDTAVYYCARLRNSEGYWYFDLWGRGTLVTVSS
VL: SQSVLTQDPAVSVALGQTVRITCQGDSLRSYYASWYQQKPGQAPLLVMYGENIRPSGIPDRFSGSTSGNSASLTITGAQAEDEADYYCNSRDSSGNHLNWVFGGGTKLTVLG
modifications: Synthetic 2D1 VH chain; Synthetic 2D1-C7 VL chain
Turning to B1, in the experiment with biotinylated KIT-ECD, the “concentration of Ag at which saturation is reached” value turned out to be 10 nM and the Kd came to 4.2 nM.

B2: 3G1-A2: affinity matured variant of 3G1, same VH (SEQ ID NO: 9), VL SEQ ID NO: 30 (antibody, V domains shown)
VH: MAQVQLVESWGGVAQPGRSLRLSCAASGFTFSSFAMHWVRQAPGKGLEWVAVTSYDGSNEYYADSVKGRFTISRDNSKNTLYLQMNSLRAEDTAVYYCAKAMVRGVTFGDLDYWGQGTLVTVSS
VL: SSELTQDPAVSVALGQTVRKTCQGDSLKSYYASWYQQKPGQAPVLVIYGENSRPSGIPDRFSGSSSGNTASLTITGAQAEDEADYYCCSRATGGYHRIFGGGTKLTVLG
modifications: Synthetic 3G1 VH chain; Synthetic 3G1-A2 VL chain
B2: in the experiment with biotinylated KIT-ECD, the “concentration of Ag at which saturation is reached” value turned out to be 10 nM and the Kd is 1.7 nM.
